Reference: patent publication US9527817B2, “Compounds for treating peripheral; neuropathies and other neurodegenerative; disorders” (THE JOHNS HOPKINS UNIVERSITY, priority 2011, dated 2016)
Entries after “also recorded” stand apart in the source; their conditions may differ.

Key:
primary DRG neurons = assay: Axon length assay, paclitaxel-induced distal axonal degeneration; type: cell-based, rat; conditions: 24 hours exposure, βIII-tubulin staining
Experimental: Measurements of axonal lengths to determine axonal degeneration induced by EQ and representative derivatives were done as described in Keswani et al., “FK506 is neuroprotective in a model of antiretroviral toxic neuropathy,” Annals of Neurology, 53(1):57-64 (2003). Initially, dorsal root ganglia (DRG) cells were harvested from embryonic rats (14.5 days old) according to standard protocol, then cells were plated onto collagen-coated glass coverslips and allowed to extend axons for 24 h in media (Neurobasal medium, 50 mM PS, 0.2% fetal bovine serum (FBS), 0.5 mM glutamine, 1×B-27 supplement, 0.2% glucose, 10 ng/mL glial cell line-derived neurotrophic factor (GDNF)). Paclitaxel (PTX), EQ and representative derivatives, or vehicle controls were added to the wells for another 24 h incubation. DRG cells were fixed with 4% paraformaldehyde and stained with anti-βIII-tubulin antibody to delineate the axons. Axon lengths were measured in multiple fields using a random sampling method as described by Keswani et al., 2003. All experiments were performed in triplicates and repeated twice. Statistical analysis was done using the ANOVA procedure. Correction for multiple comparisons was completed with Fisher's protected least significant difference. Bars marked with * indicate statistically significant differences with p<0.05.

hsp90 [1] = assay: Binding efficacy of paclitaxel to hsp90 in the presence of EQ
Experimental: Further, it was known that paclitaxel binds to hsp90. To determine if EQ was binding to the same site and displacing paclitaxel, the binding efficacy of paclitaxel to hsp90 was measured. […] It is possible that EQ binds to hsp90 and modifies its chaperone activity for an important client protein.

diabetic rats = assay: Diabetic rats: distal axonal degeneration and autonomic testing; type: in vivo, rat; conditions: data not shown
recombinant hsp90 = assay: Fluorescence quenching binding assay; conditions: 25° C.
Experimental: For the fluorescence-quenching assay, fluorescence intensity was recorded on a SpectraMax Gemini XS plate reader (Molecular Devices, Palo Alto, Calif.) using a 96-well black PCR plate (Thermo Scientific, Logan, Utah). Compounds (10 mM in ethanol) were diluted with 50 mM Tris-HCl (pH 7.4) to obtain a solution with a 15 μM final concentration. Aliquots of proteins were added to the compounds solution and mixed with micro pipette by gently pulling in and drawing out the solution. Fluorescence intensities (λex=350 nm, λem=450 nm) were measured at 25° C. Equilibrium dissociation constant KD was obtained by fitting the data using the nonlinear least squares option of the GraphPad Prism software. All experiments were completed in duplicates and repeated at least three times.
To determine the binding efficiency, fluorescence quenching experiments were carried out with recombinant hsp90.

[2] = system: four different human breast cancer cell lines: MCE-7, SUM-159, TATD, and MDA-MB-231; assay: Antineoplastic activity of paclitaxel with or without EQ (cellular ATP levels); type: cell-based; conditions: paclitaxel co-administered with varying concentrations of EQ
Experimental: To determine the effect of EQ on the antineoplastic activity of paclitaxel, the conditions for culturing four cancer cell lines and measuring the ATP levels were optimized for the 96-well plate format. Briefly, 1500 cells/well in media (MDA-MB-231 in DMEM with 10% FBS; MCF-7 in DMEM with 10% FBS; TATD in RPMI with 10% FBS; SUM159 in DMEM/F-12 (250 mL/250 mL) with 5% FBS, 500 μL of 10 mg/mL insulin and 25 μL of 10 mg/mL hydrocordisol) were plated in 96-well plates for 24 h. Constant concentrations of paclitaxel (PTX) with or without EQ were added to the wells for another 24 h. Cellular ATP levels were measured using ViaLight Plus kit (Cambrex) according to the manufacturer's protocol on a LMaxI microplate reader (Molecular Devices, Palo Alto, Calif.).

hsp90 [3] = assay: Colorimetric (malachite green) determination of hsp90 ATPase activity; type: biochemical; conditions: wide dose range of EQ
Experimental: The assay procedure for the colorimetric determination of ATPase activity was based on Rowlands et al., “High-throughput Screening Assay for Inhibitors of Heat-Shock Protein 90 ATPase Activity,” Analytical Biochemistry 327:176-183 (2004). The malachite green reagent was prepared on the day of use. It contained malachite green (Sigma Aldrich, St. Louis, Mo.; 0.0812%, w/v), polyvinyl alcohol (Sigma Aldrich, St. Louis, Mo.; 2.32%, w/v), ammonium molybdate (Sigma Aldrich, St. Louis, Mo.; 5.72%, w/v, in 6 M HCl), and UltraPure Distilled Water (Invitrogen, Life Technologies, Carlsbad, Calif.), mixed in the ratio 2:1:1:2. The reagent was initially dark brown, and then it changed to a golden yellow after 2 h at room temperature, which meant it was ready for use. The assay buffer (pH 7.4) was 100 mM Tris-HCl, 20 mM KCl, 6 mM MgCl2.
The test compounds were dissolved in 100% (v/v) DMSO to give a stock concentration of 10 mM. This solution was diluted to six appropriate concentrations with test compounds in the assay buffer. 5 μL of each compound solution was added to each well of the Perkin-Elmer 96-well assay plate. The first two rows of the 96-well plate contained DMSO only, representing the control and background values, respectively. […] The absorbance at 620 nm was measured using the SpectraMAX 340PC microplate reader (Molecular Devices, Palo Alto, Calif.). […]

hsp90 [4] = assay: Neuroprotection by EQ with hsp90 siRNA or control siRNA; type: cell-based, rat
Experimental: For the RNA inhibition experiments, transfection with siRNA was carried out according to the manufacturer's protocol. 50B11 cells were plated in 6-well plates in culture medium (Neurobasal medium, 10% fetal bovine serum (FBS), 0.5 mM glutamine, 1×B-27 supplement, 0.2% glucose) without antibiotics overnight and allowed to reach 50-70% confluence. On the second day, 1 μL siRNA oligomer (Ambion, Life Technologies, Carlsbad, Calif.) was diluted in 250 μL Opti-MEM media, and 5 μL Lipofectation 2000 (Invitrogen, Life Technologies, Carlsbad, Calif.) in another 250 μL Opti-MEM media. After 5 minutes incubation, dilutions were combined and incubated for 20 minutes at RT and then the oligomer-Lipofectation 2000 complexes were added to each well. […]
The protein isolation, protein electrophoresis (SDS-PAGE) and Western blotting assays were performed according to the instructions of the manufacturer. […] The measurements of total protein concentrations were performed using BCA kits (Thermo Scientific, Logan, Utah) on SpectraMax 340PC microplate reader (Molecular Devices, Palo Alto, Calif.). Samples (30 μg of total protein per well) and standards (SeeBlue® Plus2 Pre-Stained Standard, Invitrogen, Life Technologies, Carlsbad, Calif.) were loaded onto the wells (Ready Gel® 4-15% Tris-HCl, 50 μL^−1 gel; Bio-Rad, Hercules, Calif.). […]

[5] = system: mouse model of HIV-associated sensory neuropathy; assay: Mouse model of HIV-associated sensory neuropathy; type: in vivo; conditions: 75 μg/kg/day; data not shown
AJ mice treated with PTX = assay: Mouse model of chemotherapy induced peripheral neuropathy (paclitaxel); type: in vivo; conditions: various doses daily, PTX 25 mg/kg i.v. days 1, 3, 5
Experimental: In this model, animals develop thermal hypoalgesia and reduction in sensory nerve action potential (SNAP) amplitudes. AJ mice were given three doses of PTX at 25 mg/kg intravenously every other day (days 1, 3 and 5). Vehicle control or EQ was administered daily starting on day 1 and tissues were harvested at day 19. Immediately before tissue harvest, sensory nerve conduction studies and thermal sensation measurements were carried out.

Ethoxyquin [EQ]
distal axonal degeneration induced by PTX (axon lengths) (primary DRG neurons): partially prevented distal axonal degeneration induced by PTX
effect on binding of paclitaxel to hsp90 (hsp90 [1]): did not affect the binding of paclitaxel to hsp90; also recorded: does not alter the binding efficacy of paclitaxel to hsp90
distal axonal degeneration (diabetic rats; 75 μg/kg/day): reverses distal axonal degeneration
erectile dysfunction induced by diabetes (autonomic testing) (diabetic rats): prevents erectile dysfunction induced by diabetes
Kd (recombinant hsp90): 280 nM
effect on paclitaxel's reduction of cell viability (relative ATP levels) [2]: did not affect the ability of paclitaxel to reduce cell viability; also recorded: no significant change in reduced cell viability was observed
effect on ATPase activity of hsp90 (hsp90 [3]): does not affect the ATPase activity of hsp90; also recorded: does not alter the ATPase activity of hsp90
neuroprotection against paclitaxel with hsp90 siRNA (hsp90 [4]; PTX+100 nM EQ (+) siRNA, hsp90 downregulated): the neuroprotection by EQ disappeared; also recorded: reverses neuroprotection by EQ
neuroprotection against paclitaxel without hsp90 siRNA (hsp90 [4]; PTX+100 nM EQ (−) siRNA): Neuroprotection by EQ can be seen
distal axonal degeneration [5]: prevents distal axonal degeneration
sensory nerve action potential (SNAP) amplitude (AJ mice treated with PTX; tail sensory nerves): prevented this reduction in SNAP amplitude
distal axonal degeneration and intraepidermal nerve fiber density in the footpads (AJ mice treated with PTX): loss of distal axons was prevented
thermal hypoalgesia induced by PTX (AJ mice treated with PTX): prevented
